Activity calls are given as the source filed them. The rule behind the calls is not given here.
What was measured:
[1] = target: Proto-oncogene tyrosine-protein kinase Src (Homo sapiens, UniProt P12931); test: Inhibition of human recombinant full length N-terminal His6-tagged Src expressed in Sf21 cells using KVEKIGEGTYGVVYK as substrate after 10 mins in presence of [gamma-33P]ATP by scintillation counting method
[2] = target: Tyrosine-protein kinase Fyn (Homo sapiens, UniProt P06241); test: Inhibition of human recombinant full length N-terminal His6-tagged Fyn expressed in baculovirus infected Sf21 cells using KVEKIGEGTYGVVYK as substrate after 10 mins in presence of [gamma-33P]ATP by scintillation counting method
Tyrosine-protein kinase Fyn, sequence (P06241 whole entry, the tested form may be a part): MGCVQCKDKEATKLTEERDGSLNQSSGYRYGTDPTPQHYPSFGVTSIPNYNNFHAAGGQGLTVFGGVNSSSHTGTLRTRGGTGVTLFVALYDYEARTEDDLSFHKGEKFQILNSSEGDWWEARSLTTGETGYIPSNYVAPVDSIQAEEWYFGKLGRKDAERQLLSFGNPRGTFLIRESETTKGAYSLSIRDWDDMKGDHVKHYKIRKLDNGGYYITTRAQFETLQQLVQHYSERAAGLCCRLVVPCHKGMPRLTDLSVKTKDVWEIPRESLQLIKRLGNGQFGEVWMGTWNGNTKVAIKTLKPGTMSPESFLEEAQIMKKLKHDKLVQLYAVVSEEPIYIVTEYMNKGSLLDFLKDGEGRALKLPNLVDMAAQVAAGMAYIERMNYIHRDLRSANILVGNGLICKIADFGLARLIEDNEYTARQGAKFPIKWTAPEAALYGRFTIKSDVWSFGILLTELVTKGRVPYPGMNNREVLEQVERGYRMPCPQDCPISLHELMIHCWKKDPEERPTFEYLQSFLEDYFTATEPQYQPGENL

[3] = target: Mast/stem cell growth factor receptor Kit (Homo sapiens, UniProt P10721); test: Inhibition of human recombinant GST-His6-tagged Kit C-terminal fragment (544 to 976 residues) using GGMEDIYFEFMGGKKK as substrate after 10 mins in presence of [gamma-33P]ATP by scintillation counting method
Mast/stem cell growth factor receptor Kit, sequence (P10721 whole entry, the tested form may be a part): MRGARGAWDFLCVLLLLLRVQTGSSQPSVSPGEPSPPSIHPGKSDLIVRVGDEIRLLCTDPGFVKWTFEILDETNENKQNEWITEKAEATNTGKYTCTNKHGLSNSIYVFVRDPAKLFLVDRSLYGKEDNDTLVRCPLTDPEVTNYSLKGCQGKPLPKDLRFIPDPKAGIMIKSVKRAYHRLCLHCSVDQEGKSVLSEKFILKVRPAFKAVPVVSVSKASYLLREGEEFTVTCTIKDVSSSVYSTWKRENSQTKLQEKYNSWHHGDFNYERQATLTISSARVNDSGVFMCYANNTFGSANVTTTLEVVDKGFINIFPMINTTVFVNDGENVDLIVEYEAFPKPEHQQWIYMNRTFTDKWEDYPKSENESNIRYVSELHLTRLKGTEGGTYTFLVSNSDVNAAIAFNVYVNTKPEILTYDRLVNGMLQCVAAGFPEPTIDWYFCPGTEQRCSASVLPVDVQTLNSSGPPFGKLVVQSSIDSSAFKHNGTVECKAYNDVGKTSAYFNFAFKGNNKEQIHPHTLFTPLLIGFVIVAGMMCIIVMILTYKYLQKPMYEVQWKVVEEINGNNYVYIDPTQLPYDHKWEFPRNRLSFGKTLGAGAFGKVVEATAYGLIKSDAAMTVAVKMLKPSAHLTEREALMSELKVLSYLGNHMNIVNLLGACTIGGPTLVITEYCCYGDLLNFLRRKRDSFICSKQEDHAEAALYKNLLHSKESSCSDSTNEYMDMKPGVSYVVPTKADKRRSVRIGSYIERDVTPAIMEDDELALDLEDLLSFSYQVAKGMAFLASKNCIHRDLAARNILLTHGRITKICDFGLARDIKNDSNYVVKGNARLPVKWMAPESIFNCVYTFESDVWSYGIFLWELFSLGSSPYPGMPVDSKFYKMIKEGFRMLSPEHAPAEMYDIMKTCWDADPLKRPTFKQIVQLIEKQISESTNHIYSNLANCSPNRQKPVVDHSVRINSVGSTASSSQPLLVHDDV

[4] = tested on: Tyrosine-protein kinase ABL1 (Homo sapiens), P00519 [T315I]; test: Inhibition of Abl T315I mutant (unknown origin)
[5] = target: Tyrosine-protein kinase ABL1 (Homo sapiens, UniProt P00519); test: Inhibition of Abl (unknown origin)
[6] = target: T1, Receptor-type tyrosine-protein kinase FLT3 (Homo sapiens, UniProt P36888); test: Inhibition of Flt3 (unknown origin) using KVEKIGEGTYGVVYK as substrate after 10 mins in presence of [gamma-33P]ATP by scintillation counting method
T1 sequence (P36888 whole entry): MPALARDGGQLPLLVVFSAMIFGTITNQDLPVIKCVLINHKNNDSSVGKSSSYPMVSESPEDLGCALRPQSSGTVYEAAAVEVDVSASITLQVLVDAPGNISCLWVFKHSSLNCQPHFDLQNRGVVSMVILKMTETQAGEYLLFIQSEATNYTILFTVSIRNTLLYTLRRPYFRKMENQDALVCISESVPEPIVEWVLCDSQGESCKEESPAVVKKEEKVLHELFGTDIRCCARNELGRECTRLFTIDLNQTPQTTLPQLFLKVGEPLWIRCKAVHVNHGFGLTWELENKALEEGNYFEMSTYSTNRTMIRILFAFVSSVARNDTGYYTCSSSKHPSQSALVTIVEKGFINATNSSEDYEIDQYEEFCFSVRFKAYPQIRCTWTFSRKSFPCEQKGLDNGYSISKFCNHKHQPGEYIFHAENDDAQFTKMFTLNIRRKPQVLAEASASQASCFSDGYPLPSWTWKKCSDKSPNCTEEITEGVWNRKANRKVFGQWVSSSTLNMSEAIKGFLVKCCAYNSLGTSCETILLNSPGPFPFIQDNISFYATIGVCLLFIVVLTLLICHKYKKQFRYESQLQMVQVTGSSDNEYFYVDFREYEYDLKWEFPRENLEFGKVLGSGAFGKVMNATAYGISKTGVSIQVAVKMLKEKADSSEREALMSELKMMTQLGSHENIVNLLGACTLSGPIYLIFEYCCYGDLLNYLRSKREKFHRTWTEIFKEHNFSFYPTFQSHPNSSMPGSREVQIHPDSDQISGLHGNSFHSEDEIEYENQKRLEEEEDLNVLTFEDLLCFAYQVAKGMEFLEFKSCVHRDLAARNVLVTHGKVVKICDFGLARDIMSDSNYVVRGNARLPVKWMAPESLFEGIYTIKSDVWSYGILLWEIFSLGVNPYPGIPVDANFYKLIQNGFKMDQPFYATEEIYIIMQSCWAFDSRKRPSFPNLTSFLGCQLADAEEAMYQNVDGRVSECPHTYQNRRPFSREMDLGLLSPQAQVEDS

[7] = tested on: Epidermal growth factor receptor (Homo sapiens), P00533 [L861Q]; test: Inhibition of human recombinant N-terminal GST-tagged EGFR (696 residue-end) L861Q mutant expressed in baculovirus infected Sf21 cells using angiotensin-2 as substrate after 10 mins in presence of [gamma-33P]ATP by scintillation counting method
Epidermal growth factor receptor (Homo sapiens), P00533 [L861Q], sequence (P00533 whole entry L861Q): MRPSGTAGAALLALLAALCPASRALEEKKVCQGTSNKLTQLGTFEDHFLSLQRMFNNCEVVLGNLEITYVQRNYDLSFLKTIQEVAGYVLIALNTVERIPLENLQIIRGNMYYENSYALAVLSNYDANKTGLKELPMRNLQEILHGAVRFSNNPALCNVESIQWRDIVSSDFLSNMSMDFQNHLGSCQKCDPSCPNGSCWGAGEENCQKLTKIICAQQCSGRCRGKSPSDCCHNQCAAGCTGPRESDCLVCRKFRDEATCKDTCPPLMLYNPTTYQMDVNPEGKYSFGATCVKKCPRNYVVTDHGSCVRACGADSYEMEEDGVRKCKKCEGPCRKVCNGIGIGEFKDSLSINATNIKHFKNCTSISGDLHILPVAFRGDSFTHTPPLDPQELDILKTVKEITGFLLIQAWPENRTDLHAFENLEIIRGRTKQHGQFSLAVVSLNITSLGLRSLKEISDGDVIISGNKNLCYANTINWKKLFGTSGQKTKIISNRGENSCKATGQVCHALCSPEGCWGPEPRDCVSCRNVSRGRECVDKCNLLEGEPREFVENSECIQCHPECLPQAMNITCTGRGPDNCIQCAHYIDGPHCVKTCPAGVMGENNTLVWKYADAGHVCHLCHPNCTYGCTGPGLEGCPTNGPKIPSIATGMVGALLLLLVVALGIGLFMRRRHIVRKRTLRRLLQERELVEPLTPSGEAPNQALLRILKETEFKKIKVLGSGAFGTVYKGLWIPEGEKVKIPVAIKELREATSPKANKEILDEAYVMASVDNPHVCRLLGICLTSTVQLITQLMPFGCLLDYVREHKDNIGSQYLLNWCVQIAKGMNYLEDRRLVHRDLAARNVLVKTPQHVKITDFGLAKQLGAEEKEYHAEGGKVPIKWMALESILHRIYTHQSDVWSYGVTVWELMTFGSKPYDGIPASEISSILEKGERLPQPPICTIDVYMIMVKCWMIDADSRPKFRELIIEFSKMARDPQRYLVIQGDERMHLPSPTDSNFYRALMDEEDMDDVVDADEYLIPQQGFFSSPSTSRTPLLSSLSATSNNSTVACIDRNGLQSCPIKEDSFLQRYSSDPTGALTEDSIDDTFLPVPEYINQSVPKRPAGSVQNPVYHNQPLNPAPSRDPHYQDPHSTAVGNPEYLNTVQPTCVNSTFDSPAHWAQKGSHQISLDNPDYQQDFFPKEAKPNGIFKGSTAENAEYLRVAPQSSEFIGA

U-87 MG = test: Cytotoxicity against human U87MG cells assessed as decrease in cell viability after 72 hrs by coulter counter analysis; format: functional, cell-based, U-87MG ATCC

Proto-oncogene tyrosine-protein kinase Src, sequence (P12931 2-536 limits assumed): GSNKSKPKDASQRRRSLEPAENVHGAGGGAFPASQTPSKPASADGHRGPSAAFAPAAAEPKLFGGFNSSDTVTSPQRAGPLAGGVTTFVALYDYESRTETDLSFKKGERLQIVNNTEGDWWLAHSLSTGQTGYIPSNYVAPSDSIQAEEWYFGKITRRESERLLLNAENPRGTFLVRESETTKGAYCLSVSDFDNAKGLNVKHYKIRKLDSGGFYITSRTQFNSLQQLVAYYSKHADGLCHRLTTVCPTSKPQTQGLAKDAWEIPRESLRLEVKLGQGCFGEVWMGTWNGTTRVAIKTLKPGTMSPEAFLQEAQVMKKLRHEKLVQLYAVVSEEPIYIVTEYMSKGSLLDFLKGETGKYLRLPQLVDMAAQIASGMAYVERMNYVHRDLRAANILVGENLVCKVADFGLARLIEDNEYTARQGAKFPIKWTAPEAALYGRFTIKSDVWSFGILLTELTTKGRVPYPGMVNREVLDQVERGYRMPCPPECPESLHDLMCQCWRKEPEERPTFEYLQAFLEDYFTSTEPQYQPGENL

Compound | Ki [1] [µM] | IC50 ([2]; read-out: IC50) [µM] | IC50 [3] | inhibition [4] | IC50 [5] | IC50 [6] | inhibition [7] | IC50 (U-87 MG) [µM] | IC50 ([5]; read-out: IC50) [µM] | IC50 ([6]; read-out: IC50) [µM] | IC50 [2]
CSc1nc(NCCc2ccccc2)c2ccn(Cc3ccc(F)cc3)c2n1 | 0.8 | 30.8 | Not Active | inactive | Not Active | Not Active | inactive | 13.3 |  |  | 
CSc1nc(NCc2ccccc2)c2ccn(Cc3ccc(F)cc3)c2n1 | 0.5 | 43.2 | Not Active | inactive |  |  | inactive | 7.1 | 70 | 60 | 
CSc1nc(NCCc2ccc(Cl)cc2)c2ccn(Cc3ccc(F)cc3)c2n1 | 5 | 70.4 | Not Active | inactive | Not Active |  | inactive | 46.1 |  | 76 | 
CCCCNc1nc(SC)nc2c1ccn2Cc1ccc(F)cc1 | 3 |  | Not Active | inactive | Not Active | Not Active | inactive | 20.7 |  |  | Not Active
CSc1nc(N2CCCCC2)c2ccn(Cc3ccc(F)cc3)c2n1 | 2.5 | 57.1 | Not Active | inactive | Not Active |  | inactive | 50.7 |  | 61 | 
CSc1nc(NCc2ccccc2)c2ccn(CC(Cl)c3ccccc3)c2n1 (stereo not given) | 6 | 88.6 | Not Active | inactive | Not Active |  | inactive | 50.7 |  | 68 | 
CSc1nc(N2CCCC2)c2ccn(Cc3ccc(F)cc3)c2n1 | 2 | 76 | Not Active | inactive | Not Active |  | inactive | 51.8 |  | 64 | 
CSc1nc(Nc2cccc(Cl)c2)c2ccn(CC(Cl)c3ccccc3)c2n1 (stereo not given) | 0.7 | 58.2 | Not Active | inactive | Not Active |  | inactive | 143 |  | 55 | 
CSc1nc(N2CCOCC2)c2ccn(Cc3ccc(F)cc3)c2n1 | 4.7 |  | Not Active | inactive | Not Active |  | inactive | 20.3 |  | 61 | Not Active
CSc1nc(Nc2ccccc2)c2ccn(CC(Cl)c3ccccc3)c2n1 (stereo not given) | 1.5 | 62 | Not Active | inactive | Not Active |  | inactive | 27.4 |  | 72 | 

— ChEMBL document CHEMBL3992531, “Identification of new pyrrolo[2,3-d]pyrimidines as Src tyrosine kinase inhibitors in vitro active against Glioblastoma” (Eur J Med Chem, 2017)
